We go through eleven compounds from ChEMBL document CHEMBL4619734, “Molecule Property Analyses of Active Compounds for Mycobacterium tuberculosis” (J Med Chem, 2020).

Values after ≈ are worked out from the molar mass of the structure shown.

Type in all cases: functional
Assay [1] relates to Mycobacterium tuberculosis. Briefly: Antimycobacterial activity against multi drug-resistant Mycobacterium tuberculosis.
For assay [2], the system named is Mycobacterium tuberculosis. Briefly: Antitubercular activity against Mycobacterium tuberculosis harboring mmpL3.
Assay [3] concerns Mycobacterium tuberculosis. Briefly: Antimycobacterial activity against Mycobacterium tuberculosis drug resistant clinical isolates.
Assay [4] concerns Mycobacterium tuberculosis. Nature of the assay: Antimycobacterial activity against multi drug-resistant Mycobacterium tuberculosis H37Rv.
Assay [5] relates to Mycobacterium tuberculosis. Nature of the assay: Antimycobacterial activity against multi drug-resistant Mycobacterium tuberculosis expressing WecA.

As for `CC(C)/N=c1\cc2n(-c3ccc(Cl)cc3)c3ccccc3nc-2cc1Nc1ccc(Cl)cc1` [CLOFAZIMINE], the MIC in assay [1] is 1 µg/mL (≈ 2.11 µM).

With `Cc1c(CN2CCSCC2)cc(-c2ccc(F)cc2)n1-c1ccccc1`, the lowest concentration to inhibit growth in assay [2] (MIC) was 0.5 µg/mL (≈ 1.36 µM).

`O=[N+]([O-])c1cn2c(n1)OC[C@@H](OCc1ccc(OC(F)(F)F)cc1)C2` [PRETOMANID] came in with an MIC90 in assay [3] of 0.531 µg/mL (≈ 1.48 µM).

The compound `Cc1c(CN2CCN(c3ccc(C(F)(F)F)cc3)CC2)cc(-c2ccccc2)n1NC(=O)c1ccncc1` yielded a minimum inhibitory concentration (MIC) in assay [2] of 0.025 to 0.12 µg/mL (≈ 0.0481 to 0.231 µM).

Compound `CCN(CC)C/N=c1\cc2n(-c3ccc(Cl)c(Cl)c3)c3ccccc3nc-2cc1Nc1ccc(Cl)c(Cl)c1` came in with an MIC in assay [1] of 0.12 µg/mL (≈ 0.205 µM).

Compound `Cc1c(CN2CCN(C)CC2)cc(-c2ccc(Cl)cc2)n1-c1ccc(Cl)cc1` yielded an MIC in assay [2] of 0.7 to 6.2 µg/mL (≈ 1.69 to 15 µM).

In turn, `Cc1cc2nc(CCc3cc(Cl)cc(Cl)c3)[nH]c2cc1C` returned an MIC90 in assay [4] of 5 µM (≈ 1.6 µg/mL).

Turning to `C[C@]1(COc2ccc(N3CCC(Oc4ccc(OC(F)(F)F)cc4)CC3)cc2)Cn2cc([N+](=O)[O-])nc2O1` [DELAMANID], the MIC in assay [3] stood at 0.01 µg/mL (≈ 0.0187 µM).

Consider `CCCCc1ccc(NC(=O)C2=CCN(C)C(C(O[C@@H]3O[C@H](CN)[C@@H](O)[C@H]3O)[C@H]3OC(n4ccc(=O)[nH]c4=O)[C@H](O)[C@@H]3O)C(=O)N2C)cc1` (stereo partly specified), for which the lowest concentration to inhibit growth in assay [5] (MIC) was 6.25 µg/mL (≈ 9.07 µM).

In the case of `CC/N=c1\cc2n(-c3ccc(C(F)(F)F)cc3)c3ccccc3nc-2cc1Nc1ccc(C(F)(F)F)cc1`, the minimum inhibitory concentration (MIC) in assay [1] amounted to 0.25 µg/mL (≈ 0.475 µM).

In the case of `CC(C)=CCC/C(C)=C/CNCCNC1C2CC3CC(C2)CC1C3` (stereo unspecified) [SQ109], the MIC in assay [2] lay within 0.16 to 0.64 µg/mL (≈ 0.484 to 1.94 µM).
